According to patent US20240207422A1, “NERVE TARGETING PEPTIDE CONJUGATES AND METHODS OF USE” (Alume Biosciences, Inc., priority 2022, published 2024):

These substances were tested on excised human nerve tissue (assay: Phage display selection on excised human nerve tissue (Nerve2, Nerve3), NextGen sequence counts). Settings: unique sequence count (relative enrichment); Nerve2 only.
Assay type: binding
Procedure, shortened: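 Randomized parent-peptide m13 phage libraries (about 50% mutation per residue) selected on washed excised human nerve tissue over multiple rounds, washing nerve pellet with PBS. NextGen sequencing of pools after rounds 2, 3 and 4; translated peptides counted by frequency, with counts 6 or greater retained.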

Row | Substance | Count
1 | 304 (RVPGERQYDALNLS) [compound 304] | 11
2 | 305 (YVPLQEPYYVVKQS) [compound 305] | 11
3 | 306 (ESALKEPHQVLKHS) [compound 306] | 10
4 | 307 (HAPADQLYYPVWKP) [compound 307] | 10
5 | 308 (HFPWEEPYHVAKRS) [compound 308] | 10
6 | 309 (HFQSEEPYHIPHKH) [compound 309] | 10
7 | 310 (HHPLQEPYYVVEKS) [compound 310] | 10
8 | 311 (HMPGREPYYVVTTS) [compound 311] | 10
9 | 312 (HVAWKGPYYVLETH) [compound 312] | 10
10 | 313 (HVHGAPSYSVLKHS) [compound 313] | 10
11 | 314 (HVLWVEPYYVINKY) [compound 314] | 10
12 | 315 (HVPRVDHLYVETKS) [compound 315] | 10
13 | 316 (HVPSGERYYVVKTI) [compound 316] | 10
14 | 317 (HVPYVGAYNGVKKS) [compound 317] | 10
15 | 318 (HVQWEGPYYDVKKS) [compound 318] | 10
16 | 319 (HVRGAELSYVLTKS) [compound 319] | 10
17 | 320 (HVTWGEPYQVLNKS) [compound 320] | 10
18 | 321 (KLLTEAPYMFRTQA) [compound 321] | 10
19 | 322 (KLPWQESYDIVRKS) [compound 322] | 10
20 | 323 (KLQWQDPDYVVKNS) [compound 323] | 10
21 | 324 (KQLGVLPDYVRKNT) [compound 324] | 10
22 | 325 (LAPFEERSYALKSP) [compound 325] | 10
23 | 326 (LASWDEPSSVLRES) [compound 326] | 10

Row | Substance | Count
24 | 327 (LLPPDEPYYPMKKS) [compound 327] | 10
25 | 328 (NLQWEQPSYVAKDY) [compound 328] | 10
26 | 329 (NVPWSEQYNALKTS) [compound 329] | 10
27 | 330 (QFASSHTDYVADKS) [compound 330] | 10
28 | 331 (QIQWQGSYNDLNKS) [compound 331] | 10
29 | 332 (QISSEEPTSLLDRP) [compound 332] | 10
30 | 333 (QKPTGASYYGTKPS) [compound 333] | 10
31 | 334 (QLAFDGPSPILTTS) [compound 334] | 10
32 | 335 (QLHWGQPYSILNKS) [compound 335] | 10
33 | 336 (QLPCEVPCYLVQYS) [compound 336] | 10
34 | 337 (QLPLQYRYYFVDQS) [compound 337] | 10
35 | 338 (QLPWEGKYQLGKKR) [compound 338] | 10
36 | 339 (QLRWHEPYHVVNRY) [compound 339] | 10
37 | 340 (QSQCAGPGSAYKKC) [compound 340] | 10
38 | 341 (QTLAGETNSVVLKF) [compound 341] | 10
39 | 342 (QTQCEEPCYVVKFA) [compound 342] | 10
40 | 343 (QVPSEEQFYAAVKS) [compound 343] | 10
41 | 344 (QVPSENPFRVLKNL) [compound 344] | 10
42 | 345 (QVRYVASSDLVRIP) [compound 345] | 10
43 | 346 (QVSLQEPGDVLKEF) [compound 346] | 10
44 | 347 (QVSREEPSGVVNKP) [compound 347] | 10
45 | 348 (RLPSEALYYLVKRS) [compound 348] | 10
46 | 349 (YVPVEGIQHVVEKS) [compound 349] | 10

Same assay, conditions: unique sequence count (relative enrichment); Nerve3 only

Row | Substance | Count
47 | 350 (HVRCEEPYCHVRKS) [compound 350] | 755
48 | 351 (ELPWQKRKDVMKYP) [compound 351] | 638
49 | 352 (QMPWEVPYYVVKRS) [compound 352] | 548
50 | 353 (DDIWEVPKYRPKNS) [compound 353] | 475
51 | 354 (QIASEERDNIVKKS) [compound 354] | 462
52 | 355 (RVPWQEPYYVVLKP) [compound 355] | 419
53 | 356 (QLPGYEPYYVGTVS) [compound 356] | 412
54 | 357 (RIPSVGPYGVVKTF) [compound 357] | 391
55 | 358 (QDVWAEPYYAGKQP) [compound 358] | 390
56 | 359 (HVAWQEPRYFVKKS) [compound 359] | 359
57 | 360 (YLFAEELAYNLTKS) [compound 360] | 359
58 | 361 (QRPWEQAYFVVRST) [compound 361] | 357
59 | 362 (FVSREEPYYVVKKS) [compound 362] | 341
60 | 363 (DVAREKPYYDMKKS) [compound 363] | 335
61 | 364 (QFPSVGSYYVVPQS) [compound 364] | 331
62 | 365 (HVVWESSHFVVIDS) [compound 365] | 329
63 | 366 (QLRLGDLYNVMTKE) [compound 366] | 328
64 | 367 (QFQWQELLNVVKDS) [compound 367] | 327
65 | 368 (HVPLQEADYVLKKF) [compound 368] | 315
66 | 369 (QFPLYDPYEVMPKS) [compound 369] | 310
67 | 370 (HFRWDEPYYIANKA) [compound 370] | 300
68 | 371 (RDRHEDSKFVMNHS) [compound 371] | 290
69 | 372 (QVPFAHPYYVVNMS) [compound 372] | 288
70 | 373 (HVRWGEPSYVLKNF) [compound 373] | 272
71 | 374 (QGQTETHSHDAKRY) [compound 374] | 270
72 | 375 (QLRFEGPDNPGVQS) [compound 375] | 269
73 | 376 (QLPWEVPYSVVRQS) [compound 376] | 267

Row | Substance | Count
74 | 377 (HVPLPGPYFVLKNY) [compound 377] | 263
75 | 378 (HVKRIETYYVFTKS) [compound 378] | 258
76 | 379 (RIHLYQPYSILKNY) [compound 379] | 258
77 | 380 (QFTSEETHYVVNKS) [compound 380] | 257
78 | 381 (QHPWEDPYKIFNKY) [compound 381] | 240
79 | 382 (DVPWPNAYNFGIKS) [compound 382] | 238
80 | 383 (DVPFEHSYYGEQQY) [compound 383] | 237
81 | 384 (EFLGEAPYYVVSRS) [compound 384] | 236
82 | 385 (HVSGEEPYTVGNTS) [compound 385] | 234
83 | 386 (QFQLDQSYYSFNTL) [compound 386] | 231
84 | 387 (QILRVHPDYVVVNP) [compound 387] | 231
85 | 388 (HFPWDEAYLVVKNP) [compound 388] | 230
86 | 389 (HFSSQESNSGGKKW) [compound 389] | 230
87 | 390 (HISGEDPYFILQNS) [compound 390] | 212
88 | 391 (TFQYEQPNLVVKNA) [compound 391] | 207
89 | 392 (LLAWDEQDYFLRKT) [compound 392] | 199
90 | 393 (HINWDKRYAVVITY) [compound 393] | 197
91 | 394 (HFPSEYPFDLVSKS) [compound 394] | 196
92 | 395 (QFLWQQPDHVRRKS) [compound 395] | 196
93 | 396 (QIVLNAPYYVVKTS) [compound 396] | 189
94 | 397 (TVPAHNPYYLVKQT) [compound 397] | 185
95 | 398 (QDPSVDPYYVDRSS) [compound 398] | 181
96 | 399 (QFHCHGACYIVKNS) [compound 399] | 180
97 | 400 (RLPQHESYIVGKIS) [compound 400] | 174
98 | 401 (RVYWIDPYYIVNES) [compound 401] | 174
99 | 402 (QIPLKTPYNVVKKF) [compound 402] | 171
100 | 403 (QFPQGEAGYIAKSF) [compound 403] | 163

Row | Substance | Count
101 | 404 (QFYWDQSNYGEQKP) [compound 404] | 161
102 | 405 (HVPWAGSSDVLKVT) [compound 405] | 160
103 | 406 (QVPWEKPVSFVQKS) [compound 406] | 159
104 | 407 (HVWWEDPYYVVRKT) [compound 407] | 158
105 | 408 (WLHWEQPYWTVKKS) [compound 408] | 143
106 | 409 (LFAGENGYFTVRQF) [compound 409] | 139
107 | 410 (QVSWVYPPNDVIVS) [compound 410] | 133
108 | 411 (NDPWPVPYYMVKNS) [compound 411] | 130
109 | 412 (QVQWQVPYYVVKKP) [compound 412] | 128
110 | 413 (HFPLQEPYYVVKNS) [compound 413] | 127
111 | 414 (QGSSVATSSVLTML) [compound 414] | 123
112 | 415 (QPCADKPYCVHTIT) [compound 415] | 123
113 | 416 (HVWWEEAHYSWKHS) [compound 416] | 120
114 | 417 (DLFVEEPYLGVIKF) [compound 417] | 117
115 | 418 (YSLWEDLIFNMQNS) [compound 418] | 116
116 | 419 (QIPWVEASNVLISF) [compound 419] | 115
117 | 420 (QFGQENHNHFVRKS) [compound 420] | 113
118 | 421 (QVSLVESRSVLKIL) [compound 421] | 110
119 | 422 (AVQRAKPYYAVQNS) [compound 422] | 109
120 | 423 (HLLGDYRFWAFTNA) [compound 423] | 109
121 | 424 (ESPWAPPYYVVKKS) [compound 424] | 107
122 | 425 (QIPTVEPYYEGKKS) [compound 425] | 105
123 | 426 (QVRGGQPDQVLRLS) [compound 426] | 105
124 | 427 (FVARNEPFYVVGTS) [compound 427] | 104
125 | 428 (QIPLEEMYYVVRTY) [compound 428] | 103
126 | 429 (QVSSVGPNHVVKKI) [compound 429] | 102
